The results in this text go back to patent US4649150A, “Antiulcerogenic amidine derivatives of 2-substituted 4-phenylimidazole” (Istituto de Angeli, S.p.A., priority 1983, dated 1987).

Read-outs that look alike come from different tables or passages of the source.

Assay [1] has as its system histamine-induced gastric secretion of acid. The assay can be described thus: In vivo antisecretory activity in histamine-induced gastric secretion (stomach perfused rat). Conditions: iv, read-out: ED50 (histamine-induced gastric secretion). From the text:
The ability of the test compounds to inhibit histamine-induced gastric secretion of acid was investigated after intravenous or intraduodenal administration in stomach perfused rats, according to Gosh and Schild [Br. J. Pharmacol. Chemother. 13, 54 (1958)]. The preparation of the animals in general anesthesia (urethane 1 g.kg^-1 i.p.) and constant temperature was achieved by inserting and tying in place polyethyl tubes (PE 50) in the esophagus and in the pyloric-antral region. After the stomach was washed to remove residuals of food, continuous perfusion of the stomach was started with saline, 0.5 ml.min^-1 (37° C.), primed by a Jobling peristaltic pump. After 30 minutes of perfusion adaptation, samples of the stomach perfusate were collected at 30 min. intervals and titrated for acid content, expressed as μEq of 1N NaOH. As control acid output became constant, intravenous perfusion of histamine (1 mg.kg^-1hr^-1) was started and maintained throughout the experimental period. After the acid secretion had reached the steadily higher level, increasing doses of the test compound were injected intravenously in order to obtain dose-response functions. The ED50 was then calculated by standard procedure.

The target of assay [2] is T1, histamine H2 -receptors (Cavia porcellus, UniProt P47747).
T1 construct: isolated guinea pig atria suspended in an organ bath; from tissue; host or cells: isolated guinea pig atria
T1 sequence (P47747 whole entry): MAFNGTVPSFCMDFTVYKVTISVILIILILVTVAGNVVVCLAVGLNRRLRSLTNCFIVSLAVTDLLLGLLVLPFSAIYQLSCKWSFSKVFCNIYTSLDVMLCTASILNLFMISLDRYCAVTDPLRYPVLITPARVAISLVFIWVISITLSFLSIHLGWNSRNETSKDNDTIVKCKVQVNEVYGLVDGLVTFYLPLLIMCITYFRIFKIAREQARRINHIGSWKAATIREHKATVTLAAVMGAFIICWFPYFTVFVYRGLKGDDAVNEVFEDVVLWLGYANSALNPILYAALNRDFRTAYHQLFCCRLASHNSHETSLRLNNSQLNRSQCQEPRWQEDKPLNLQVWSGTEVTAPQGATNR
The assay can be described thus: In vitro inhibitory activity in histamine-induced tachycardia (guinea pig atria); inhibition of the histamine-evoked positive chronotropic effect. Conditions: isolated guinea pig atria, Krebs-Henseleit pH 7.4, 32° C., histamine 10^-6 g.ml^-1, 30 minutes; read-out: EC50 (average effective concentration of the H2-antagonists, inhibition of histamine-induced tachycardia). On the procedure: The myocardial preparation, loaded with 1 g isometric tension, was allowed to stabilize for 60 minutes, and myocardial contractions were recorded through an isometric lever connected to a strain-gauge coupler, and the instantaneous rate was monitored with a cardiotachometer and a heat-writing pen recorder. After two control responses to histamine (10^-6 g.ml^-1) the test compounds were added to the bath at the desired final concentration and left for 30 minutes before the atria were again challenged with histamine. The chronotropic response obtained in the presence of the antagonist was then compared to the control response to histamine, and the percent reduction of the histamine H2 -evoked response was calculated. […] 3, Smooth muscle, Ed. Daniel E. E. Paton, M., Plenum Press. New York (1975); Ash and Schild, Br. J. Pharmacol. Chemother. 27, 427-439, 1966.

Where [3] appears, read: stomach perfused rat, urethane anesthesia, histamine 1 mg.kg^-1hr^-1 i.v., values expressed taking the compound as a base.

`Cc1nc(-c2ccc(N=CNC(C)(C)C)cc2)c[nH]1` [Example 17, N-tert.Butyl-N'-[4-(2-methyl-imidazol-4-yl)phenyl]-formamidine]: the ED50 in assay [1] (setting [3]) was determined as 0.08 mg/kg. For the same compound, the EC50 in assay [2] worked out at 0.4 µM. On to `CN/C(=N/CCSCc1nc[nH]c1C)NC#N` [Cimetidine, reference compound], for which the ED50 in assay [1] (Rattus norvegicus) is 0.56 mg/kg. Regarding `CC(C)NC=Nc1ccc(-c2c[nH]c(O)n2)cc1` [16 (aa), N-Isopropyl-N'-[4-(2-hydroxy-imidazol-4-yl)phenyl]-formamidine], the median effective dose (ED50) in assay [1] (setting [3]) was 0.065 mg/kg. In addition, in assay [2], the EC50 turned out to be 0.194 µM. In the case of `C=CCNC=Nc1ccc(-c2c[nH]c(C)n2)cc1` [16 (c), N-Allyl-N'-[4-(2-methyl-imidazol-4-yl)phenyl]-formamidine], the median effective dose (ED50) in assay [1] (setting [3]) came to 0.025 mg/kg. Moreover, the EC50 in assay [2] turned out to be 0.12 µM. As for `Cc1nc(-c2ccc(N=CNC(C)C)cc2)c[nH]1` [16 (b), N-Isopropyl-N'-[4-(2-methyl-imidazol-4-yl)phenyl]-formamidine], the ED50 in assay [1] (setting [3]) worked out at 0.067 mg/kg. Moreover, the EC50 in assay [2] is 0.18 µM. Take `CCNC=Nc1ccc(-c2c[nH]c(C)n2)cc1` [16 (a), N-Ethyl-N'-[4-(2-methyl-imidazol-4-yl)phenyl]-formamidine]: the ED50 in assay [1] (setting [3]) stood at 0.032 mg/kg. Further, the EC50 in assay [2] is 0.15 µM.

The term ED50 denotes the dose that gives a 50% effect, or the effect in half of the subjects.
